Experimental data taken from patent US11787772B2, “Carboxylic diarythiazepineamines as mixed mu- and delta-opioid receptor agonists” (THE TRUSTEES OF COLUMBIA UNIVERSITY IN THE CITY OF NEW YORK, priority 2017, dated 2023).
Counter-ions that a name gives are not always drawn. Like-named read-outs stand apart in the source and are kept apart here.

Legend:
[1] = molecular target: T1, human mu opioid receptor (MOR) (Homo sapiens, UniProt P35372); test: BRET assay measuring G protein activation, agonist activity at human MOR; assay type: cell-based; conditions: for MOR potency relative to analogs lacking substitution at position 2: dihalo-substituted core
T1 construct: expressed in transfected cells; host or cells: HEK-293T
Experimental: (§1) The diarylthiazepinamine carboxylic acids (9) were tested for agonist activity at the human mu opioid receptor (MOR) and delta opioid receptor (DOR) using bioluminescence resonance energy transfer (BRET) assays measuring G protein activation as previously described (Table 1) (Rives, M.-L. et al. 2012; Negri, A. et al. 2013).
Human MOR cDNA was transfected alongside GααB with RLuc8 inserted at position 91 (GααB—RLuc8), Gβ1 (β1), and Gγ2 fused to the full-length mVenus at its N terminus (mVenus-γ2) into HEK-293T cells (5×10^6 cells/plate) in 10-cm dishes using PEI (Polysciences Inc.; Warrington, PA) in a 1:1 ratio diluted in Opti-MEM (Life Technologies Corp.; Grand Island, NY) to assay for G protein activation as described previously (Rives, M.-L. et al. 2012; Negri, A. et al. 2013). Cells were maintained in Dulbecco's Modified Eagle Medium (high glucose #11965; Life Technologies) supplemented with 10% FBS (Premium Select, Atlanta Biologicals; Atlanta, GA) and 100 U/mL penicillin and 100 μg/mL streptomycin (#15140, Life Technologies). After 24 hours the media was changed, and the experiment was performed 24 hours later (48 hours after transfection).
(§2) Transfected cells were dissociated and re-suspended in phosphate-buffered saline (PBS). Approximately 200,000 cells/well were added to a black-framed, white well 96-well plate (#60050; Perkin Elmer; Waltham, MA). The microplate was centrifuged and the cells were re-suspended in PBS. Then 5 μM of the luciferase substrate coelenterazine H was added to each well for 5 minutes. Following coelenterazine H addition, ligands were added and the BRET signal was measured at 5 minutes on a PHERAstar FS plate reader. Quantification of the BRET signal required calculating the ratio of the light emitted by the energy acceptor, mVenus (510-540 nm), over the light emitted by the energy donor, RLuc8 (485 nm). […] Dose response curves were fit using a three-parameter logistics equation in GraphPad Prism 6.
The additional diarylthiazepinamine carboxylic acids (9i, 9j, 9k, and 91) were tested for agonist activity at the human mu opioid receptor (MOR) using bioluminescence resonance energy transfer (BRET) assays measuring G protein activation (Table 2) as previously described (Rives, M.-L. et al. 2012; Negri, A. et al. 2013; Example 2 of the present application).

[2] = molecular target: T2, human delta opioid receptor (DOR) (Homo sapiens, UniProt P41143); test: BRET assay measuring G protein activation, agonist activity at human DOR; assay type: cell-based
T2 construct: expressed in transfected cells
Experimental: as §1, §2

[3] = BRET G protein activation, HEK-293T cells, error ± SEM of 2 or more independent trials, read-out: Human MOR (EC50)
[4] = BRET G protein activation, error ± SEM of 2 or more independent trials, read-out: Human DOR (EC50)

T2 sequence (P41143 whole entry): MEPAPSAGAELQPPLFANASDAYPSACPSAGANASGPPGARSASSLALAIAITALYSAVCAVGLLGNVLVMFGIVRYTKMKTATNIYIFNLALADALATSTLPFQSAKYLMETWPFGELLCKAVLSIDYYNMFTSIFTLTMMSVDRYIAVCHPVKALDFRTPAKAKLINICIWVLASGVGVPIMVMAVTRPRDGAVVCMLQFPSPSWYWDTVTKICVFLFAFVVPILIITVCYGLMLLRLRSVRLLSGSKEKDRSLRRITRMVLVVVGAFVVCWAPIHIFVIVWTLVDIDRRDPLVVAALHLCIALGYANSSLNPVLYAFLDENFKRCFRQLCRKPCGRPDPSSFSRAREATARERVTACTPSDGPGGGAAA
T1 sequence (P35372 whole entry): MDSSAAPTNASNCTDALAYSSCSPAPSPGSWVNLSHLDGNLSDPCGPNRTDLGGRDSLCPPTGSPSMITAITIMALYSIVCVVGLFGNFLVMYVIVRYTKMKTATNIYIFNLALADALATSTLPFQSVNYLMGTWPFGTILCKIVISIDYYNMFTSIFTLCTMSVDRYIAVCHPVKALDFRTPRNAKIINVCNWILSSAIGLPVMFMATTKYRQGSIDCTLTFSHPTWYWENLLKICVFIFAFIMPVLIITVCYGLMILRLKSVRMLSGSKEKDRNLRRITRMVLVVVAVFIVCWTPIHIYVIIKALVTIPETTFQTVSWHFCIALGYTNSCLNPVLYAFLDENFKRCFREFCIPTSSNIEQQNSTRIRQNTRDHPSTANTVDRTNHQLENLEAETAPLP

## Cc1ccc2c(c1)S(=O)(=O)N(C)c1ccccc1C2NCCCCCCC(=O)O (centres unmarked) [3-Methyl-substituted Analog, reference compound]
[1]
  EC50: 0.89 µM
[2]
  EC50: > 10 µM

## CCOC(=O)CCCCCCNC1c2ccccc2N(C)S(=O)(=O)c2cc(SC)ccc21 (centres unmarked) [Compound 8c, Ethyl 7-((6-methyl-3-(methylthio)-5,5-dioxido-6,11-dihydrodibenzo[c,f][1,2]thiazepin-11-yl)amino)heptanoate]
[1]; [3]
  EC50: 0.222 µM
[2]; BRET G protein activation
  Emax: 70%
  Human DOR agonist type (partial / full agonist): partial agonist
[2]; [4]
  EC50: 7 µM

## C#Cc1ccc2c(c1)S(=O)(=O)N(C)c1ccccc1C2NCCCCCCC(=O)O (centres unmarked) [Compound 9a, 7-((3-Ethynyl-6-methyl-5,5-dioxido-6,11-dihydrodibenzo [c,f][1,2]thiazepin-11-yl)amino)heptanoic acid]
[1]; [3]
  EC50: 0.0533 ± 0.018 µM
[2]; [4]
  EC50: 5.9 ± 0.3 µM

## CSc1ccc2c(c1)S(=O)(=O)N(C)c1ccccc1C2NCCCCCCC(=O)O (centres unmarked) [Compound 9c, 7-((6-Methyl-3-(methylthio)-5,5-dioxido-6,1l-dihydrodibenzo [c,f][1,2]thiazepin-11-yl)amino)heptanoic acid]
[1]; [3]
  EC50: 0.0418 µM
[2]; BRET G protein activation
  Emax: 51%
  Human DOR Emax: 51%
  Human DOR agonist type (partial / full agonist): partial agonist
[2]; [4]
  EC50: 2.06 µM
[2]; FIG. 1
  DOR Emax relative to the control agonist DPDPE: lesser Emax than the control agonist DPDPE

## CN1c2ccccc2C(NCCCCCCCC(=O)O)c2ccc(Br)cc2S1(=O)=O (centres unmarked) [Compound 9d, 8-((3-Bromo-6-methyl-5,5-dioxido-6,11-dihydrodibenzo [c,f][1,2]thiazepin-11-yl)amino) octanoic acid hydrochloride salt]
[1]
  EC50: 0.056 ± 0.024 µM
[2]
  EC50: 1.7 ± 0.04 µM

## CN1c2ccccc2C(NCCCCCCCCC(=O)O)c2ccc(I)cc2S1(=O)=O (centres unmarked) [Compound 9f, 9-((3-Iodo-6-methyl-5,5-dioxido-6,11-dihydrodibenzo [c,f][1,2]thiazepin-11-yl)amino) nonanoic acid hydrochloride salt]
[1]
  EC50: 0.022 ± 0.014 µM
[2]
  EC50: 0.53 ± 0.34 µM

## CN1c2ccccc2C(NCCCCCCCCCCC(=O)O)c2ccc(I)cc2S1(=O)=O (centres unmarked) [Compound 9h, 11-((3-Iodo-6-methyl-5,5-dioxido-6,11-dihydrodibenzo [c,f][1,2]thiazepin-11-yl)amino)undecanoic acid hydrochloride salt]
[1]
  EC50: 0.11 ± 0.029 µM
[2]
  EC50: 0.7 ± 0.305 µM

## CN1c2ccccc2C(NCCCCCCC(=O)O)c2cc(Cl)c(Cl)cc2S1(=O)=O.Cl (centres unmarked) [Compound 9i, 7-((2,3-dichloro-6-methyl-5,5-dioxido-6,11-dihydrodibenzo [c,f][1,2]thiazepin-11-yl)amino)heptanoic acid hydrochloride salt]
[1]
  EC50: 0.172 µM
  MOR potency relative to analogs lacking substitution at position 2: equipotent or more potent

## CN1c2ccccc2C(NCCCCC(=O)O)c2cc(F)c(Br)cc2S1(=O)=O.Cl (centres unmarked) [Compound 9l, 5-((3-bromo-2-fluoro-6-methyl-5,5-dioxido-6,11-dihydrodibenzo [c,f][1,2]thiazepin-11-yl)amino)pentanoic acid hydrochloride salt]
[1]
  EC50: 0.045 µM
  MOR potency relative to analogs lacking substitution at position 2: equipotent or more potent

## CCOC(=O)CCCCCCNC1c2ccccc2N(C)S(=O)(=O)c2ccc(Cl)cc21 (centres unmarked) [Compound 15a, reference compound]
[1]
  EC50: 4.15 ± 0.93 µM

## CCOC(=O)CCCCCCNC1c2ccccc2N(C)S(=O)(=O)c2ccccc21 (centres unmarked) [Compound 15c, reference compound]
[1]
  EC50: 0.156 ± 0.0847 µM

## COCCCNC1c2ccccc2N(C)S(=O)(=O)c2ccc(Cl)cc21 (centres unmarked) [Compound 16a, reference compound]
[1]; [3]
  EC50: 16.9 ± 5.22 µM

## COCCCNC1c2ccccc2N(C)S(=O)(=O)c2cc(Cl)ccc21 (centres unmarked) [Compound 16b, reference compound]
[1]; [3]
  EC50: 0.264 ± 0.0853 µM

## COCCCNC1c2ccccc2N(C)S(=O)(=O)c2ccccc21 (centres unmarked) [Compound 16c, reference compound]
[1]; [3]
  EC50: 2.01 ± 0.7 µM
